In patent US11565094B2, “Delivery devices” (THE METHODIST HOSPITAL SYSTEM, priority 2017, dated 2023):

How the values were obtained:
[1] = design: species or system C57Bl6 mice; settings: mouse, in vivo
Text: Utilizing the percutaneous trocar delivery approach, PEEK nano-channel implants loaded with Magnevist were inserted intratumorally into the upper thigh of C57Bl6 mice with induced melanoma. The implants were visualized on T1-weighted images as an area of hypointensity corresponding to the PEEK body and surrounded by a hyperintense halo of contrast agent (FIG. 7B). Implant location could also be identified on T2-weighted images that, in addition, highlighted tumor heterogeneity (FIG. 7A).
An unexpected outcome was the implant's loaded concentration being too high for visualization, as the relaxation time was faster than the scanner could detect. This is further evidenced by the sharp onset of observable enhancement a few mm from the implant's exterior. The narrow band of this observable enhancement, beginning 2-5 mm from the implant's exterior and approximately 1 mm thick, provides evidence of rapid clearance of the contrast agent from the tumor tissue. FIG. 7C serves as an idealized graphical representation of the relationship between the normalized concentration and the visible contrast zone.

[2] = VEGF 0.5 and 5 μg/mL in PLM, subcutaneous device
Description: The encapsulation systems were evaluated in nude mice (Nu/Nu, female, 8-10 week old), after receiving approval by the Institutional Animal Care and Use Committee of Houston Methodist Research Institute. Surface treated and sterilized devices, loaded with platelet-lysate matrix (PLM) enriched with VEGF at two different concentrations (0.5 and 5 μg/mL), were implanted subcutaneously in the mice dorsum (n=12 per group). At 1, 2, and 4 weeks post implantation, 4 mice per group were euthanized and the graft explanted for the histological assessment of vascularization and innervation. The implant and surrounding tissues were harvested and processed for histopathology evaluation of tissue response to the implanted device. CD31 antibody (Abcam, ab28364) and a pan-axonal antibody (Cambridge Bioscience, SMI-312R-100) were used to assess vascularization and innervation, respectively.
In vivo vascularization and innervation of oxygen treated devices after subcutaneous implantation in nude mice was then investigated. […] To stimulate neovascularization and to support the islet viability and function for a period of time after transplantation, devices loaded with biological gels with different VEGF concentrations was used. […] Tissue samples were taken from the side of the device closer to the skin, representing the subcutaneous environment.

Molecule | distance from implant's exterior where observable enhancement begins [1] | thickness of band of observable enhancement [1] | number of vessels stained by CD31 versus VEGF concentration [2]
CNC[C@H](O)[C@@H](O)[C@H](O)[C@H](O)CO.CNC[C@H](O)[C@@H](O)[C@H](O)[C@H](O)CO.O=C([O-])CN(CCN(CC(=O)[O-])CC(=O)O)CCN(CC(=O)[O-])CC(=O)O.[Gd+3] [Magnevist] | 2-5 mm | approximately 1 mm | 
vascular endothelial growth factor [VEGF] |  |  | positive trend
